Assay results: patent US3976673A, “4-Cyclopropylmethyleneoxy-3-chlorophenylacetic acid and salts thereof” (priority 1974, dated 1976)
“Also recorded” adds a separate entry of the source.

Tests used:
[1] = tested on: hyperpyressia induced by yeast; experiment: Anti-piretic activity, hyperpyressia induced by yeast; format: in vivo, albino rabbits
Description: (§1) This was evaluated considering 2 kinds of hyperpyressia. Hyperpyressia induced by:
To albino rabbits, 1 ml/kg of a 0.2% aqueous suspension of yeast were injected intravenously. The rectal temperature was teken at the beginning of the experiment and 60 minutes after the treatment with the pyrogen agent. Immediately after taking the temperature the compounds under test were administered orally to the animals and the rectal temperatures thereof were subsequently measured after 30, 60, 120 and 180 minutes. 10 Animals were treated for each dose level. The difference between the temperatures taken in the animals treated and in the controls is and index of the antipyretic activity. The results obtained by performing the two methods cited above for the determination of the antipyretic activity are listed in Tables 4 and 5 respectively and evaluated as average value for each dose.

[2] = tested on: abdominal stretching induced by phenylbenzoquinone; experiment: Analgesic activity, Siegmund (phenylbenzoquinone abdominal stretching); format: in vivo, Swiss male mice; conditions: salts' dosage expressed as acid, vs water controls
Description: It was evaluated according to the following methods:
The antagonism towards the abdominal stretching induced by phenylbenzoquinone was evaluated. Swiss male mice weighing 19-21 g were treated orally with the compounds under examination 30 minutes before the endoperitoneal administration of 0.25 ml of a […] aqueous phenylbenzoquinone solution. The animals were kept under observation for 30 minutes after treatment with phenylbenzoquinone and the abdominal stretchings for each animal were counted. 10 Mice for each dosage level were used and the corresponding average values considered. The percentage decrease of the number of abdominal stretchings in the animals treated with the substances under test compared with the controls treated with water was taken as the index of the analgesic activity.

[3] = tested on: edema induced by carrageenin; experiment: Anti-inflammatory activity, Winter's method (carrageenin edema); format: in vivo, male rats; conditions: 3 hours after carrageenin
Description: This was determined according to Winter's method which evaluates the inhibiting effect on the edema induced by carrageenin.
Male rats weighing 170-190 g were treated with the compounds under test and after 60 minutes 0.005 ml of a 1% aqueous solution of carrageenin were injected into the plantar zone of a hind paw of each animal. The volume of the treated paw was determined immediately after the injection and 3 hours later.
10 Animals were used for each dosage level. The increase difference in the volume of the paw of animals treated compared with the controls represents the index of the anti-inflammatory activity. The results obtained, expressed as percentage inhibition of the volume of the edema compared to the controls and evaluated as average value for each dose are listed in Table 3.

[4] = tested on: hyperpyressia induced by bactopeptone; experiment: Anti-piretic activity, hyperpyressia induced by bactopeptone; format: in vivo, Wistar male rats
Description: as §1
1 Milliliter of 5% aqueous solution of bactopeptone preincubated for 18 hours at 37°C were injected subcutaneously in Wistar male rats weighing 170-190 g. 4 Hours after treatment with the pyrogen, the animals were divided into groups of ten animals each and treated orally with the substances under examination. The rectal temperature was taken at the beginning of the test, 4 hours after the injection of the pyrogen agent and subsequently 1, 2 and 3 hours after the administration of the substances under test. The difference between the temperature taken in the treated animals and in controls is an index of the anti-pyretic activity.

[5] = tested on: pain threshold of rat's paw made edematous by yeast; experiment: Analgesic activity, Randall and Selitto (pain threshold of edematous rat paw); format: in vivo, male Wistar rats; conditions: vs basal values
Description: It was evaluated according to the following methods: a. Randall and Selitto The pressure to be exerted on a rat's paw previously made edematous by injecting into the plantar zone 0.1 ml of 20% suspension of yeast until appearance of painful reaction was measured in mmHg. The pain threshold was determined 30 minutes before and 30, 60, 90 and 120 minutes after the administration of the substances under test. 10 Male Wistar rats weighing 170-190 g were used for each dosage level and the corresponding average values considered for each dose. The percentage increase of the pain threshold compared to the basal values is taken as the index of the analgesic activity.

[6] = Toxicity / therapeutical index (general statement); conditions: statement in words
[7] = Chemical stability (general statement); format: physicochemical; conditions: statement in words
[8] = 5 mg/kg i.p., salts' dosage expressed as acid
[9] = 10 mg/kg os, salts' dosage expressed as acid
[10] = 25 mg/kg i.p., salts' dosage expressed as acid
[11] = 50 mg/kg i.p., salts' dosage expressed as acid
[12] = 50 mg/kg os, salts' dosage expressed as acid
[13] = 15 mg/kg os, salts' dosage expressed as acid
[14] = 25 mg/kg os, salts' dosage expressed as acid

Compound: C=CCOc1ccc(CC(=O)O)cc1Cl [4-allyloxy-3-chlorophenylacetic acid, reference compound]
- Rectal temperature, 30 mins. after treatment ([1]; 10 mg/kg per os): 40.30 °C
- Rectal temperature, 60 mins. after treatment ([1]; 10 mg/kg per os): 40.13 °C
- Rectal temperature, 120 mins. after treatment ([1]; 10 mg/kg per os): 40.06 °C
- Rectal temperature, 180 mins. after treatment ([1]; 10 mg/kg per os): 40.03 °C
- Rectal temperature, 30 mins. after treatment ([1]; 25 mg/kg per os): 40.35 °C
- Rectal temperature, 60 mins. after treatment ([1]; 25 mg/kg per os): 39.85 °C
- Rectal temperature, 120 mins. after treatment ([1]; 25 mg/kg per os): 39.30 °C
- Rectal temperature, 180 mins. after treatment ([1]; 25 mg/kg per os): 39.25 °C
- % Decrease in number of stretchings ([2]; 25 mg/kg os): 27%
- % Decrease in number of stretchings ([2]; 50 mg/kg os): 58%
- % Decrease in number of stretchings ([2]; 100 mg/kg os): 96%
- % Inhibition of oedema ([3]; 2.5 mg/kg i.p.): 0%
- % Inhibition of oedema [3, 8]: 10%
- % Inhibition of oedema [3, 9]: 18%
- % Inhibition of oedema [3, 10]: 25%
- % Inhibition of oedema [3, 11]: 57%
- % Inhibition of oedema [3, 12]: 34%
- Rectal temperature, 1 hour after treatment [4, 13]: 38.2 °C
- Rectal temperature, 2 hours after treatment [4, 13]: 38.7 °C
- Rectal temperature, 3 hours after treatment [4, 13]: 38.4 °C
- Rectal temperature, 1 hour after treatment [4, 14]: 37.6 °C
- Rectal temperature, 2 hours after treatment [4, 14]: 38.4 °C
- Rectal temperature, 3 hours after treatment [4, 14]: 38.5 °C
- Rectal temperature, 1 hour after treatment ([4]; 50 mg/kg os): 37.7 °C
- Rectal temperature, 2 hours after treatment ([4]; 50 mg/kg os): 37.5 °C
- Rectal temperature, 3 hours after treatment ([4]; 50 mg/kg os): 37.7 °C
- % Increase of pain threshold [5, 10]: 7%
- % Increase of pain threshold [5, 14]: 15%
- % Increase of pain threshold [5, 11]: 30%
- % Increase of pain threshold [5, 12]: 57%
- % Increase of pain threshold ([5]; 100 mg/kg i.p.): 93%
- % Increase of pain threshold ([5]; 100 mg/kg os): 92%

Compound: O=C(O)Cc1ccc(OCC2CC2)c(Cl)c1 [4-cyclopropylmethyleneoxy-3-chlorophenylacetic acid]
- toxicity [6]: low toxicity
- Rectal temperature, 30 mins. after treatment ([1]; 5 mg/kg per os): 40.17 °C
- Rectal temperature, 60 mins. after treatment ([1]; 5 mg/kg per os): 40.15 °C
- Rectal temperature, 120 mins. after treatment ([1]; 5 mg/kg per os): 40.55 °C
- Rectal temperature, 180 mins. after treatment ([1]; 5 mg/kg per os): 40.02 °C
- Rectal temperature, 30 mins. after treatment ([1]; 10 mg/kg per os): 40.05 °C
- Rectal temperature, 60 mins. after treatment ([1]; 10 mg/kg per os): 39.90 °C
- Rectal temperature, 120 mins. after treatment ([1]; 10 mg/kg per os): 39.48 °C
- Rectal temperature, 180 mins. after treatment ([1]; 10 mg/kg per os): 39.32 °C
- Rectal temperature, 30 mins. after treatment ([1]; 25 mg/kg per os): 40.65 °C
- Rectal temperature, 60 mins. after treatment ([1]; 25 mg/kg per os): 39.95 °C
- Rectal temperature, 120 mins. after treatment ([1]; 25 mg/kg per os): 39.20 °C
- Rectal temperature, 180 mins. after treatment ([1]; 25 mg/kg per os): 39.05 °C
- % Decrease in number of stretchings ([2]; 25 mg/kg os): 51%
- % Decrease in number of stretchings ([2]; 50 mg/kg os): 77%
- % Decrease in number of stretchings ([2]; 100 mg/kg os): 98%
- % Inhibition of oedema ([3]; 2.5 mg/kg i.p.): 15%
- % Inhibition of oedema [3, 8]: 37%
- % Inhibition of oedema [3, 9]: 31%
- % Inhibition of oedema [3, 10]: 55%
- % Inhibition of oedema [3, 11]: 61%
- % Inhibition of oedema [3, 12]: 65%
- Rectal temperature, 1 hour after treatment ([4]; 6 mg/kg os): 38.7 °C
- Rectal temperature, 2 hours after treatment ([4]; 6 mg/kg os): 39.3 °C
- Rectal temperature, 3 hours after treatment ([4]; 6 mg/kg os): 39.1 °C
- Rectal temperature, 1 hour after treatment [4, 13]: 37.7 °C
- Rectal temperature, 2 hours after treatment [4, 13]: 38.0 °C
- Rectal temperature, 3 hours after treatment [4, 13]: 37.6 °C
- Rectal temperature, 1 hour after treatment [4, 14]: 37.3 °C
- Rectal temperature, 2 hours after treatment [4, 14]: 37.3 °C
- Rectal temperature, 3 hours after treatment [4, 14]: 37.1 °C
- % Increase of pain threshold [5, 10]: 27%
- % Increase of pain threshold [5, 14]: 44%
- % Increase of pain threshold [5, 11]: 105%
- % Increase of pain threshold [5, 12]: 120%
- % Increase of pain threshold ([5]; 100 mg/kg i.p.): 176%
- % Increase of pain threshold ([5]; 100 mg/kg os): 180%
- stability of chemical structure [7]: noticeable stability; also recorded: chemically stable

Compound: O=C(O)Cc1ccc(OCC2CC2)c(Cl)c1 [DL-lysine 4-cyclopropylmethyleneoxy-3-chlorophenylacetate]
- % Decrease in number of stretchings ([2]; 25 mg/kg os): 60%
- % Decrease in number of stretchings ([2]; 50 mg/kg os): 90%
- % Decrease in number of stretchings ([2]; 100 mg/kg os): 100%
- % Inhibition of oedema [3, 8]: 38%
- % Inhibition of oedema [3, 9]: 41%
- % Inhibition of oedema [3, 10]: 64%
- % Inhibition of oedema [3, 12]: 81%
- Rectal temperature, 1 hour after treatment [4, 13]: 37.6 °C
- Rectal temperature, 2 hours after treatment [4, 13]: 38.0 °C
- Rectal temperature, 3 hours after treatment [4, 13]: 37.8 °C
- Rectal temperature, 1 hour after treatment [4, 14]: 37.4 °C
- Rectal temperature, 2 hours after treatment [4, 14]: 37.0 °C
- Rectal temperature, 3 hours after treatment [4, 14]: 36.7 °C
- % Increase of pain threshold [5, 10]: 83%
- % Increase of pain threshold [5, 14]: 30%
- % Increase of pain threshold [5, 11]: 103%
- % Increase of pain threshold [5, 12]: 104%

Compound: O=C([O-])Cc1ccc(OCC2CC2)c(Cl)c1.O=C([O-])Cc1ccc(OCC2CC2)c(Cl)c1.[Cu+2] [copper 4-cyclopropylmethyleneoxy-3-chlorophenylacetate]
- % Decrease in number of stretchings ([2]; 25 mg/kg os): 50%
- % Decrease in number of stretchings ([2]; 50 mg/kg os): 81%
- % Decrease in number of stretchings ([2]; 100 mg/kg os): 99%
- % Inhibition of oedema [3, 8]: 32%
- % Inhibition of oedema [3, 9]: 38%
- % Inhibition of oedema [3, 10]: 51%
- % Inhibition of oedema [3, 11]: 61%
- % Inhibition of oedema [3, 12]: 71%
- Rectal temperature, 1 hour after treatment [4, 13]: 38.1 °C
- Rectal temperature, 2 hours after treatment [4, 13]: 37.7 °C
- Rectal temperature, 3 hours after treatment [4, 13]: 36.7 °C
- Rectal temperature, 1 hour after treatment [4, 14]: 37.8 °C
- Rectal temperature, 2 hours after treatment [4, 14]: 37.2 °C
- Rectal temperature, 3 hours after treatment [4, 14]: 36.6 °C
- % Increase of pain threshold [5, 10]: 67%
- % Increase of pain threshold [5, 14]: 62%
- % Increase of pain threshold [5, 11]: 121%
- % Increase of pain threshold [5, 12]: 116%

Compound: CCCCC1C(=O)N(c2ccccc2)N(c2ccccc2)C1=O [phenylbutazone, 4-butyl-1,2-diphenyl-3,5-dioxopyrazoline, reference compound]
- % Decrease in number of stretchings ([2]; 25 mg/kg os): 3%
- % Decrease in number of stretchings ([2]; 50 mg/kg os): 65%
- % Decrease in number of stretchings ([2]; 100 mg/kg os): 98%
- % Inhibition of oedema ([3]; 2.5 mg/kg i.p.): 0%
- % Inhibition of oedema [3, 8]: 3%
- % Inhibition of oedema [3, 9]: 0%
- % Inhibition of oedema [3, 10]: 22%
- % Inhibition of oedema [3, 11]: 55%
- % Inhibition of oedema [3, 12]: 28%
- Rectal temperature, 1 hour after treatment [4, 13]: 38.3 °C
- Rectal temperature, 2 hours after treatment [4, 13]: 38.8 °C
- Rectal temperature, 3 hours after treatment [4, 13]: 38.6 °C
- Rectal temperature, 1 hour after treatment [4, 14]: 38.1 °C
- Rectal temperature, 2 hours after treatment [4, 14]: 38.9 °C
- Rectal temperature, 3 hours after treatment [4, 14]: 38.3 °C
- Rectal temperature, 1 hour after treatment ([4]; 100 mg/kg os): 38.1 °C
- Rectal temperature, 2 hours after treatment ([4]; 100 mg/kg os): 37.6 °C
- Rectal temperature, 3 hours after treatment ([4]; 100 mg/kg os): 37.4 °C
- % Increase of pain threshold [5, 10]: 3%
- % Increase of pain threshold [5, 14]: 33%
- % Increase of pain threshold [5, 11]: 42%
- % Increase of pain threshold [5, 12]: 94%
